Values of other authors, collected in US11795119B2, “Stabilized DCD and/or alkyl thiophosphoric triamide solvent systems and use in agricultural applications” (RHODIA OPERATIONS, priority 2016, dated 2023).

Columns and labels:
[1] = typically above 45° C.

| solubility in water | SMILES | degradation at higher temperature [1] |
| --- | --- | --- |
| about 41 g/l | N#CNC(=N)N [Dicyandiamide, 2-cyanoguanidine] | – |
| – | CCCCNP(N)(N)=S [NBPT, N-(n-butyl)-thiophosphoric triamide] | degrades rapidly |
